Laboratory results: patent publication US10336746B1, “RAD51 inhibitors” (Cyteir Therapeutics, Inc., priority 2017, dated 2019)
Like-named read-outs stand apart in the source and are kept apart here.

What was measured:
[1] = tested on: ARPE19/HPV16 (HPV Immortalized RPE); assay: Cell line screen, ARPE19/HPV16; type: cell-based; conditions: ARPE-19, AICDA Expression Negative
Description: (§1) The activity of the claimed compounds was measured in a variety of cell lines with different expression levels of activation induced cytidine deaminase (AICDA). The potency assay was repeated in all of the listed cell lines and the EC50 values recorded.

[2] = tested on: TOV-1120D (Ovary); assay: Cell line screen, TOV-1120D; type: cell-based; conditions: AICDA Expression Negative
Description: as §1

[3] = Bi-directional Caco-2 permeability; type: in vitro ADME; conditions: human; for efflux ratio at 90 min: Caco-2, read-out: BA/AB Ratio; for Papp A→B at 90 min: Caco-2, apical to basolateral, read-out: AB Papp (cm/sec × 10^6); for Papp A→B at 90 min / Papp B→A at 90 min: 37 C, up to 90 minutes; for Papp B→A at 90 min: Caco-2, basolateral to apical, read-out: BA Papp (cm/sec × 10^6)
Description: Bi-directional Caco-2 permeability was assayed. Caco-2 cells were seeded onto permeable polycarbonate supports and allowed to differentiate for about 3 weeks prior to being used in the assays. The cells were then exposed to the compounds from either the apical or basolateral sides and incubated at 37 C for up to 90 minutes under light agitation. Compound transport was then measured using LC/MS/MS analysis at 30, 60, and 90 minutes.

[4] = Human liver microsome stability; type: in vitro ADME; conditions: human liver microsomes; for half-life / microsomal CLint: 37° C., 45 minutes; for microsomal CLint: read-out: Clearance (μg/min/mg)
Description: The stability of the claimed compounds was determined in the presences of human liver microsomes. The compounds were incubated with the microsomes at 37° C. for 45 minutes. Samples were analyzed using LC-MS/MS. Data analysis included half-life, clearance rate, and the percentage of hepatic blood flow (% QH) for each of the compounds in the different species.

[5] = Caco-2, Caco-2, AB direction, read-out: AB Recovery %
[6] = Caco-2, Caco-2, BA direction, read-out: BA Recovery %

SMILES	EC50 [1] [µM]	EC50 [2] [µM]	recovery at 90 min [3, 5] [%]	recovery at 90 min [3, 6] [%]	efflux ratio at 90 min [3]	Papp A→B at 90 min [3] [×10⁻⁶ cm/s]	Papp B→A at 90 min [3] [×10⁻⁶ cm/s]	% QH (percentage of hepatic blood flow) [4] [%]	half-life [4] [h]	microsomal CLint [4] [µL/min/mg]
CC(C)OC(=O)N[C@H]1CC[C@H](c2ncc(-c3ccc(NC(=O)NCc4ccccc4)cc3S(=O)(=O)NC(C)(C)C)s2)CC1 [Ex. 66A, trans-isopropyl N-[4-[5-[4-(benzylcarbamoylamino)-2-(tert-butylsulfamoyl)phenyl]thiazol-2-yl]cyclohexyl]carbamate]	> 10	2.38	64.9	81.2	1.4	2.9	3.9	49.6	1.29	18.2
CC(C)OC(=O)Nc1ccc(-c2cnc([C@H]3CC[C@H](NC(=O)OC(C)C)CC3)s2)c(S(=O)(=O)NC(C)(C)C)c1 [Ex. 67A, trans-isopropyl N-[3-(tert-butylsulfamoyl)-4-[2-[4-(isopropoxycarbonylamino)cyclohexyl]thiazol-5-yl]phenyl]carbamate]	> 10	4.92	50.7	78.6	0.7	10.5	6.9	<20.3	> 5	< 4.6
